# Source: US7812220B2, “Engineering β-ketoacyl ACP synthase for novel substrate specificity” (Calgene LLC, priority 1999, dated 2010)
# Where a chain is given by its changes, count along the chain named. Names and notes keep the numbering of the source.
# B1: L197: E. coli KAS II protein with L197A mutation (protein, UniProt P0AAI5 2-413, looked up, variant L197A)
# 3-oxoacyl-[acyl-carrier-protei …: SKRRVVVTGLGMLSPVGNTVESTWKALLAGQSGISLIDHFDTSAYATKFAGLVKDFNCEDIISRKEQRKMDAFIQYGIVAGVQAMQDSGLEITEENATRIGAAIGSGIGGLGLIEENHTSLMNGGPRKISPFFVPSTIVNMVAGHLTIMYGLRGPSISIATACTSGVHNIGHAARIIAYGDADVMVAGGAEKASTPAGVGGFGAARALSTRNDNPQAASRPWDKERDGFVLGDGAGMLVLEEYEHAKKRGAKIYAELVGFGMSSDAYHMTSPPENGAGAALAMANALRDAGIEASQIGYVNAHGTSTPAGDKAEAQAVKTIFGEAASRVLVSSTKSMTGHLLGAAGAVESIYSILALRDQAVPPTINLDNPDEGCDLDFVPHEARQVSGMEYTLCNSFGFGGTNGSLIFKKI
# B2: KAS II/L111A-F133A (protein, UniProt P0AAI5 2-413, looked up, variant L111A F133A)
# 3-oxoacyl-[acyl-carrier-protei …: B1 3-oxoacyl-[acyl-carrier-protei … with L111A, F133A, A197L
# Tests used:
# [1] = target: fatty acid synthase from Saccharomyces cerevisiae (Saccharomyces cerevisiae, UniProt P19097); settings: among chain length analogues maintaining the double bond positions; cited from earlier work
# Chain of fatty acid synthase from Saccharomyces cerevisiae (P19097 whole entry): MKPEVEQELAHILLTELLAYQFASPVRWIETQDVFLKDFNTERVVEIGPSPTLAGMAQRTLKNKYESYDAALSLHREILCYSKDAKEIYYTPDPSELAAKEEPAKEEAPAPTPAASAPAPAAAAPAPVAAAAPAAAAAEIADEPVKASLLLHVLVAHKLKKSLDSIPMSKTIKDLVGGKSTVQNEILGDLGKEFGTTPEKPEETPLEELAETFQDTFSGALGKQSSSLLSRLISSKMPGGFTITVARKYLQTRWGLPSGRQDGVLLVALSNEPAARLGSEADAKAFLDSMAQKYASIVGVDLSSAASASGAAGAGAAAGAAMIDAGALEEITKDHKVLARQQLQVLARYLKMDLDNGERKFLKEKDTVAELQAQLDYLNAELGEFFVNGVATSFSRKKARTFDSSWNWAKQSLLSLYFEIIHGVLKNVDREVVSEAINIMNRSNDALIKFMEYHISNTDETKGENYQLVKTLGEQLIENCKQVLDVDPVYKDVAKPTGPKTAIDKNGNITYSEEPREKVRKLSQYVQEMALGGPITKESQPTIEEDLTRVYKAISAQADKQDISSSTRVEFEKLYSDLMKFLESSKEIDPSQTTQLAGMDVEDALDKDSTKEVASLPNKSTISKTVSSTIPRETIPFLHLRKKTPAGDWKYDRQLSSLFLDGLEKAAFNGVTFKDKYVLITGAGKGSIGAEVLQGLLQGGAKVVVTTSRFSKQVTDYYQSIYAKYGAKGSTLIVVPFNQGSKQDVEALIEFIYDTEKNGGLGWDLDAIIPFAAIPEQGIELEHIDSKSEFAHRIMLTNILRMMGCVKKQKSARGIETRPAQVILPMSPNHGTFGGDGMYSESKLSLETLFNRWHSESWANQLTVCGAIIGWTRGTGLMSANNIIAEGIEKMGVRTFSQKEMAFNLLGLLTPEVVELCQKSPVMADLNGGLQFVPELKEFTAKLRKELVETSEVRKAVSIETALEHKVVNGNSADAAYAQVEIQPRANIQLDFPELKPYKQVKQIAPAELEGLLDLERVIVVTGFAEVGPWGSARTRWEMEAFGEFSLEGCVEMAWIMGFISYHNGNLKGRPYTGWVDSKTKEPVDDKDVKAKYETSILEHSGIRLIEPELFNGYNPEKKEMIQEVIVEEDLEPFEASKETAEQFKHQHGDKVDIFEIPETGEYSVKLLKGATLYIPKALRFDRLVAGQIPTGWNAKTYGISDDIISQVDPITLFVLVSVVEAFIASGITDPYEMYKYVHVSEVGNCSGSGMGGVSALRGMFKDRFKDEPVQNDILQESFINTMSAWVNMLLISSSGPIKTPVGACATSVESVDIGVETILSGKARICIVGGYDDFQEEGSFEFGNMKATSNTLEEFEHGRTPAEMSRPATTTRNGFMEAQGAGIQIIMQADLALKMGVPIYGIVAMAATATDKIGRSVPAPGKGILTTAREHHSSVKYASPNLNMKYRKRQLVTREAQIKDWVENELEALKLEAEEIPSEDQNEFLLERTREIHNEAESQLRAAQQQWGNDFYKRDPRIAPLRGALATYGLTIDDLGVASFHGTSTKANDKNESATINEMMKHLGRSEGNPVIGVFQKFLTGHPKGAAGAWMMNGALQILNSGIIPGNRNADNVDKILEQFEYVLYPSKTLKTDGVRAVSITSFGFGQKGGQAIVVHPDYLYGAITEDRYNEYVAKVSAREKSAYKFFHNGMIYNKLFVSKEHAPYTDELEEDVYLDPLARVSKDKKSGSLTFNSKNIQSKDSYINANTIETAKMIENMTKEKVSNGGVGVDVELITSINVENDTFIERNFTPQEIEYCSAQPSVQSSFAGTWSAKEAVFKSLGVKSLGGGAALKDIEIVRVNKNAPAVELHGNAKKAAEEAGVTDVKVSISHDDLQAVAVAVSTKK
# Chain of fatty acid synthase from Saccharomyces cerevisiae (P07149 whole entry partner): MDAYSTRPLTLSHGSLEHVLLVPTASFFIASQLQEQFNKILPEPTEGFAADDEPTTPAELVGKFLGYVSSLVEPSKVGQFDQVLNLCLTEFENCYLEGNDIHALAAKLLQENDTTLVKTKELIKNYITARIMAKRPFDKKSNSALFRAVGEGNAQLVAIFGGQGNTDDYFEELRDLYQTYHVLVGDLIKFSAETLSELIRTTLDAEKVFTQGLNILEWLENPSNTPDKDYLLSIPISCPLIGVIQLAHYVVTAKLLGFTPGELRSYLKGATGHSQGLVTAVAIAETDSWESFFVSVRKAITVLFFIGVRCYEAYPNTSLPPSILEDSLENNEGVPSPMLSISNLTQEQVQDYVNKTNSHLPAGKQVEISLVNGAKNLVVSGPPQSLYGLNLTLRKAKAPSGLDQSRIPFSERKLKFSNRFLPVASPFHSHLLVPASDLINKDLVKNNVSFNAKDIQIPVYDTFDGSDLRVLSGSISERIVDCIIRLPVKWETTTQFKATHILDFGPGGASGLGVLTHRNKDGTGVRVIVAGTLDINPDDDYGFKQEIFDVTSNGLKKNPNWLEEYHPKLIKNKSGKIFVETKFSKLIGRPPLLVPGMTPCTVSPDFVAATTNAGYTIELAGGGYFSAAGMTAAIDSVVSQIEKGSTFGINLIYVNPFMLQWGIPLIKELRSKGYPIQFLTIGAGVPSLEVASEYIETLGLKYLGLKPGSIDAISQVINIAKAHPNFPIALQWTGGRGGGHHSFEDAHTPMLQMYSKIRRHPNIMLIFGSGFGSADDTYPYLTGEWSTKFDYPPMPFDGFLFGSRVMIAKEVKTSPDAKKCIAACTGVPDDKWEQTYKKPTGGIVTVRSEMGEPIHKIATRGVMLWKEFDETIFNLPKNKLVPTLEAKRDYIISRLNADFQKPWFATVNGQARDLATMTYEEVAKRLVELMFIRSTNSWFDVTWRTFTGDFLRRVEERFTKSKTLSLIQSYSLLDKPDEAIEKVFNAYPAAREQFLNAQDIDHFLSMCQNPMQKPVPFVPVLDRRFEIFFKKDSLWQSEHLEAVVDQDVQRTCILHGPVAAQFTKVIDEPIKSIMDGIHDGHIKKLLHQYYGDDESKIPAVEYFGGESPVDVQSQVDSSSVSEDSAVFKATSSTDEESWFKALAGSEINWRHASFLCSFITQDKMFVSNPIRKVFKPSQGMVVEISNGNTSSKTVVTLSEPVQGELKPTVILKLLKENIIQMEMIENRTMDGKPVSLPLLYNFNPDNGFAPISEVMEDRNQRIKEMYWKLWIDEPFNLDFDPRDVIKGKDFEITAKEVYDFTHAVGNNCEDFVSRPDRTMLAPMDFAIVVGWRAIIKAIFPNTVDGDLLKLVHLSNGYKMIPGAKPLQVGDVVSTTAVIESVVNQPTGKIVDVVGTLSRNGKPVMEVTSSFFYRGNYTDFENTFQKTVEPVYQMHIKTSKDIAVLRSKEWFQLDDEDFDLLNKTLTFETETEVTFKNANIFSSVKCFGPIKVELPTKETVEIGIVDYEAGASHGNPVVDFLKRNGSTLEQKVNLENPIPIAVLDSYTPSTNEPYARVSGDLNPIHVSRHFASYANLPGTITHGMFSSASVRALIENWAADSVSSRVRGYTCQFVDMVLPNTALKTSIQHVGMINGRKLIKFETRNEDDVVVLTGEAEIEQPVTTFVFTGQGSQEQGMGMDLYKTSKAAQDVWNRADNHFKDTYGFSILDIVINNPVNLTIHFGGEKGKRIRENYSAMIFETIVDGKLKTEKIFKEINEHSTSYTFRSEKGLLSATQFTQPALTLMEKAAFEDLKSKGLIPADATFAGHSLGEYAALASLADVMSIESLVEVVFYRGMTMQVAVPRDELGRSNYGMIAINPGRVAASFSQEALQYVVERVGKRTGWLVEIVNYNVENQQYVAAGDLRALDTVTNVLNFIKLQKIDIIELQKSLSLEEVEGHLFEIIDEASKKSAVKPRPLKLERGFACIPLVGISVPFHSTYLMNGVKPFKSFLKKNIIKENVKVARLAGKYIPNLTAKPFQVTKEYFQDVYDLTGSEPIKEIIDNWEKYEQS
# KASII = settings: in comparison with cerulenin; cited from earlier work
# E. coli strain M15/pREP4 = test: Effect of expression of KAS II mutants on the fatty acid composition of E. coli (GC FAME); assay type: cell-based; settings: for accumulation of 18:0: IPTG induced 2 hours; for long chain fatty acid accumulation due to L111A and F133A: in combination mutants
# Experimental: The mutant KAS II genes cloned behind an IPTG inducible T5 promoter (pQE30 vector, Qiagen) were transformed into E. coli strain M15/pREP4. E. coli M15/pREP4 strains containing no vector (−Vec), vector without insert (+Vec), or vectors expression wild-type KAS I or II or single or multiple engineered forms of KASII were grown to mid-log phase in LB media at 30° C. Expression was induced for 2 hours with IPTG (0.75 mM), cells were harvested, lyophilzed, and the lipids were extracted into toluene and derivatized by sodium methoxide and analyzed for fatty acid content by GC FAME analysis as described in Dehesh, et al. (1998) Plant J. 15:383-390.
molecule,measurement,setting,value
"C/C=C/C/C=C/CCC(=O)[C@H]1O[C@H]1C(N)=O [Cerulenin, cerulenin]",inhibitory activity,[1],highest inhibitory activity
CCCCCCCCC(=O)[C@H]1O[C@H]1C(N)=O [tetrahydrocerulenin],"inhibitory activity, less than cerulenin",KASII,more than 2 orders of magnitude
F133A: E. coli KAS II protein with F133A mutation,accumulation of 18:0,E. coli strain M15/pREP4; FIG. 3,7%
I108A,long chain fatty acid accumulation due to L111A and F133A,E. coli strain M15/pREP4,decrease the long chain fatty acid accumulation
I114A,long chain fatty acid accumulation due to L111A and F133A,E. coli strain M15/pREP4,decrease the long chain fatty acid accumulation
L111A: E. coli KAS II protein with L111A mutation,accumulation of 18:0,E. coli strain M15/pREP4; FIG. 3,13%
B1,accumulation of 18:0,E. coli strain M15/pREP4; FIG. 3,4%
B2,level of 20:0,E. coli strain M15/pREP4; FIG. 3,2%
same,level of 20:1,E. coli strain M15/pREP4; FIG. 3,4%
